IC50 data for 71 molecules are collected here from US9023865B2, “Compounds that are ERK inhibitors” (Merck Sharp & Dohme Corp., priority 2011, dated 2015).

SMILES strings stand for the structures.

Active Human ERK2 (hERK2), sequence (P28482 whole entry): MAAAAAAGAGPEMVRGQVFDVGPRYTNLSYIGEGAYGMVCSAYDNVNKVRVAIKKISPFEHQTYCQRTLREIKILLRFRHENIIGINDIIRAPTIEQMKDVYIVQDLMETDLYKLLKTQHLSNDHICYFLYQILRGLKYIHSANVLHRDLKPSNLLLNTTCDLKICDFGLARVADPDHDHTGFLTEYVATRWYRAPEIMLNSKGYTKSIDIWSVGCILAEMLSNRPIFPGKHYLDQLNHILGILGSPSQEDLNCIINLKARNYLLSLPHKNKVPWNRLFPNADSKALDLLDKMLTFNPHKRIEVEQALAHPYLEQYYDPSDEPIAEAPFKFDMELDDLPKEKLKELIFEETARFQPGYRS

The assay deals with Active Human ERK2 (hERK2) (Homo sapiens (Human), UniProt P28482). Briefly: Active Human ERK2 (hERK2) Activity Assay (IMAP-FP). Conditions: phosphorylated active hERK2, 30 μM ATP; average; read-out: ERK 2 Human average IC50. The assay is classed as biochemical. In short, it runs like this:
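Phosphorylation by activated human ERK2 (0.5 nM) at 30 μM ATP, peptide substrate 900 nM unlabeled with 80 nM labeled, proceeds 60 min. IMAP beads stop the reaction; after 60 min equilibration, product is measured by fluorescence polarization.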
As usually defined, the IC50 is the point on the concentration scale where inhibition reaches its midpoint. Turning to `Cc1cc(-c2n[nH]c3cc(NC(=O)NCc4ccsc4)ncc23)ccn1` [Example 475], the IC50 came out at 0.385 nM. Then `Cc1cc(-c2n[nH]c3cc(NC(=O)NCc4ccsn4)ncc23)ccn1` [Example 476], with 0.587 nM; and `Cc1cc(-c2n[nH]c3cc(NC(=O)NCc4nc(C)cs4)ncc23)ccn1` [Example 477], with 2.61 nM; and `Cc1cc(-c2n[nH]c3cc(NC(=O)NCc4ccc(Cl)cn4)ncc23)ccn1` [Example 478], with 6.01 nM. The same measure for `Cc1cc(-c2n[nH]c3cc(NC(=O)NCc4ccccn4)ncc23)ccn1` [Example 479]: 3.02 nM; for `Cc1cc(-c2n[nH]c3cc(NC(=O)NCc4ncccc4C)ncc23)ccn1` [Example 480]: 1.22 nM.

Take `Cc1cc(-c2n[nH]c3cc(NC(=O)N[C@@H](CN(C)C)c4ccccc4)ncc23)ccn1` [Example 481]: the IC50 was 10.8 nM. On to `Cc1cc(-c2n[nH]c3cc(NC(=O)N[C@H](CN(C)C)c4ccccc4)ncc23)ccn1` [Example 482], for which the IC50 was found to be 0.29 nM. On to `Cc1cc(-c2n[nH]c3cc(NC(=O)N[C@H](CN)c4ccccc4)ncc23)ccn1` [Example 483], for which the IC50 was 0.152 nM. The same measure for `Cc1cc(-c2n[nH]c3cc(NC(=O)NCC4CCO4)ncc23)ccn1` (centres unmarked) [Example 484]: 376 nM; for `COc1cccc(F)c1CNC(=O)Nc1cc2[nH]nc(-c3ccnc(C)c3)c2cn1` [Example 485]: 0.307 nM; for `COC[C@H](NC(=O)Nc1cc2[nH]nc(-c3ccc(F)cc3)c2cn1)c1ccccn1` [Example 486]: 23.5 nM. The same measure for `Cc1cc(-c2n[nH]c3cc(NC(=O)NCc4ncc(Cl)cc4F)ncc23)ccn1` [Example 487]: 10.1 nM. As for `Cc1cc(-c2n[nH]c3cc(NC(=O)NCc4csc5ccc(Cl)cc45)ncc23)ccn1` [Example 488], the IC50 is 5.85 nM.

`Cc1cc(-c2n[nH]c3cc(NC(=O)N[C@@H]4c5ccccc5C[C@H]4N(C)C)ncc23)ccn1` [Example 490]: the IC50 stood at 11.3 nM. Then `Cc1cc(-c2n[nH]c3cc(NC(=O)NCc4cnccc4C)ncc23)ccn1` [Example 491], with 1.41 nM; and `Cc1cc(-c2n[nH]c3cc(NC(=O)NC4(CN)CCc5cc(F)ccc54)ncc23)ccn1` (centres unmarked) [Example 492], with 26 nM; and `Cc1cc(-c2n[nH]c3cc(NC(=O)Nc4noc5cccnc45)ncc23)ccn1` [Example 493], with 0.428 nM. The same measure for `COC[C@H](Cc1ccccc1)NC(=O)Nc1cc2[nH]nc(-c3ccnc(C)c3)c2cn1` [Example 494]: 4.34 nM. The same measure for `COc1ncccc1CNC(=O)Nc1cc2[nH]nc(-c3ccnc(C)c3)c2cn1` [Example 495]: 0.608 nM; for `Cc1cc(-c2n[nH]c3cc(NC(=O)NC(C)c4cscn4)ncc23)ccn1` (centres unmarked) [Example 496]: 1.41 nM. Take `Cc1cc(-c2n[nH]c3cc(NC(=O)NC(C)c4ccno4)ncc23)ccn1` (centres unmarked) [Example 497]: the IC50 amounted to 1.53 nM. For the molecule `Cc1ccnc(C(C)NC(=O)Nc2cc3[nH]nc(-c4ccnc(C)c4)c3cn2)c1` (centres unmarked) [Example 498], the IC50 was found to be 2.82 nM. As to `COC[C@@H](NC(=O)Nc1cc2[nH]nc(-c3ccc(F)cc3)c2cn1)c1ccccn1` [Example 500], the IC50 stood at 0.778 nM. Regarding `Cc1cc(-c2n[nH]c3cc(NC(=O)NC4CNc5ccccc5C4)ncc23)ccn1` (centres unmarked) [Example 501], the IC50 was 0.958 nM. Then `Cc1cc(-c2n[nH]c3cc(NC(=O)NCc4csc5ccccc45)ncc23)ccn1` [Example 502], with 1.31 nM. With `Cc1cc(-c2n[nH]c3cc(NC(=O)N[C@H](C)c4ccc(F)cn4)ncc23)ccn1` [Example 503], the IC50 is 0.858 nM. Then `Cc1cc(-c2n[nH]c3cc(NC(=O)NC4CCc5nc(N)sc5C4)ncc23)ccn1` (centres unmarked) [Example 504], with 1.36 nM. Then `Cc1cc(-c2n[nH]c3cc(NC(=O)NC4CCc5cccnc5C4)ncc23)ccn1` (centres unmarked) [Example 505], with 0.865 nM; and `Cc1cc(-c2n[nH]c3cc(NC(=O)NC4CCc5[nH]ncc5C4)ncc23)ccn1` (centres unmarked) [Example 506], with 0.805 nM. The same measure for `Cc1cc(-c2n[nH]c3cc(NC(=O)NC4CCc5[nH]nc(C)c5C4)ncc23)ccn1` (centres unmarked) [Example 507]: 0.762 nM; for `Cc1cc(-c2n[nH]c3cc(NC(=O)NCc4ccc[n+]([O-])c4)ncc23)ccn1` [Example 508]: 11.6 nM; for `Cc1cc(-c2n[nH]c3cc(NC(=O)NC(c4cccnc4)C(F)F)ncc23)ccn1` (centres unmarked) [Example 509]: 3.07 nM.

With `Cc1cc(-c2n[nH]c3cc(NC(=O)NCc4cnccc4C(F)(F)F)ncc23)ccn1` [Example 510], the IC50 came out at 3.66 nM.

`Cc1cc(-c2n[nH]c3cc(NC(=O)NCc4ccc(F)cc4C(F)(F)F)ncc23)ccn1` [Example 512]: the IC50 turned out to be 2.94 nM.

For `Cc1cc(-c2n[nH]c3cc(NC(=O)NCc4ccc(F)cc4F)ncc23)ccn1` [Example 513], the IC50 worked out at 1.56 nM.

For the molecule `Cc1cc(-c2n[nH]c3cc(NC(=O)NCc4c(C)cc(Cl)cc4Cl)ncc23)ccn1` [Example 514], the IC50 was determined as 2.87 nM. In the case of `Cc1cc(-c2n[nH]c3cc(NC(=O)NCc4ccc(Cl)cc4C)ncc23)ccn1` [Example 515], the IC50 was found to be 2.45 nM.

As for `Cc1cc(-c2n[nH]c3cc(NC(=O)NCc4ccc(F)cn4)ncc23)ccn1` [Example 516], the IC50 turned out to be 2.35 nM. Consider `Cc1cc(-c2n[nH]c3cc(NC(=O)NCc4ncc(F)cc4Cl)ncc23)ccn1` [Example 517], for which the IC50 is 0.761 nM.

Consider `CNC(=O)c1cc(F)ccc1CNC(=O)Nc1cc2[nH]nc(-c3ccnc(C)c3)c2cn1` [Example 518], for which the IC50 was 5.18 nM.

As for `Cc1cc(-c2n[nH]c3cc(NC(=O)NCc4c(F)cc(F)cc4F)ncc23)ccn1` [Example 519], the IC50 turned out to be 0.962 nM. Then `COc1cc(F)ccc1CNC(=O)Nc1cc2[nH]nc(-c3ccnc(C)c3)c2cn1` [Example 520], with 0.44 nM; and `Cc1cc(-c2n[nH]c3cc(NC(=O)NCc4ccc(Cl)cc4F)ncc23)ccn1` [Example 521], with 3.31 nM. The same measure for `Cc1cc(-c2n[nH]c3cc(NC(=O)NC(CN)c4ccc(F)cc4)ncc23)ccn1` (centres unmarked) [Example 522]: 0.357 nM; for `Cc1cc(-c2n[nH]c3cc(NC(=O)NCc4ccccc4OC(F)(F)F)ncc23)ccn1` [Example 523]: 0.605 nM. In the case of `Cc1cc(-c2n[nH]c3cc(NC(=O)NC(C)c4ccccc4OC(F)(F)F)ncc23)ccn1` (centres unmarked) [Example 524], the IC50 amounted to 2.39 nM.

With `Cc1cc(-c2n[nH]c3cc(NC(=O)NCc4ccccc4OCC(F)F)ncc23)ccn1` [Example 525], the IC50 is 0.358 nM. The same measure for `CCOc1ncccc1CNC(=O)Nc1cc2[nH]nc(-c3ccnc(C)c3)c2cn1` [Example 526]: 0.546 nM; for `Cc1cc(-c2n[nH]c3cc(NC(=O)N[C@H](C)c4ccc(C(F)(F)F)nc4)ncc23)ccn1` [Example 527]: 567 nM; for `Cc1cc(-c2n[nH]c3cc(NC(=O)NC(C)C4CCOC4)ncc23)ccn1` (centres unmarked) [Example 528]: 12.7 nM. `COc1ccccc1CNC(=O)Nc1cc2[nH]nc(-c3ccnc(C)c3)c2cn1` [Example 529]: the IC50 is 0.293 nM. Then `Cc1cc(-c2n[nH]c3cc(NC(=O)NC4c5ccccc5OC(C)(C)C4O)ncc23)ccn1` (centres unmarked) [Example 530], with 53.5 nM; and `Cc1cc(-c2n[nH]c3cc(NC(=O)N[C@@H](c4ccccc4)C4(O)CCCC4)ncc23)ccn1` [Example 531], with 0.545 nM.

On to `Cc1cc(-c2n[nH]c3cc(NC(=O)NC4CCOc5ccccc54)ncc23)ccn1` (centres unmarked) [Example 532], for which the IC50 was 3.52 nM. Regarding `Cc1cc(-c2n[nH]c3c(F)c(NC(=O)N[C@H](C)c4ccc(Cl)cc4)ncc23)ccn1` [Example 534], the IC50 was found to be 0.509 nM. Take `Cc1cc(-c2n[nH]c3c(F)c(NC(=O)NCc4ccccc4)ncc23)ccn1` [Example 536]: the half-maximal inhibitory concentration (IC50) stood at 1.14 nM. The same measure for `C[C@@H](NC(=O)Nc1cc2[nH]nc(C#N)c2cn1)c1ccccc1` [Example 537, (R)-1-(3-cyano-1H-pyrazolo[4,3-c]pyridin-6-yl)-3-(1-phenylethyl)urea]: 66.6 nM; for `COC[C@@H](NC(=O)Nc1cc2[nH]nc(-c3ccnc(C)c3)c2cn1)c1ccccc1` [Example 538]: 0.298 nM; for `C[C@@H](NC(=O)Nc1ncc2c(-c3ccnc(F)c3)n[nH]c2c1F)c1ccccc1` [Example 539]: 0.728 nM. The same measure for `C[C@@H](NC(=O)Nc1ncc2c(C#N)n[nH]c2c1F)c1ccccc1` [Example 540]: 946 nM; for `COC[C@@H](NC(=O)Nc1ncc2c(-c3ccnc(C)c3)n[nH]c2c1F)c1ccccc1` [Example 542]: 0.269 nM; for `COC[C@@H](NC(=O)Nc1ncc2c(-c3ccnc(F)c3)n[nH]c2c1F)c1ccccc1` [Example 543]: 0.272 nM. Then `Cc1cc(-c2n[nH]c3c(F)c(NC(=O)N[C@H](CO)c4ccccc4)ncc23)ccn1` [Example 544], with 1.28 nM; and `COC[C@@H](NC(=O)Nc1cc2[nH]nc(-c3ccncc3)c2cn1)c1ccccc1` [Example 545], with 0.236 nM; and `O=C(Nc1cc2[nH]nc(-c3ccncc3)c2cn1)N[C@H](CO)c1ccccc1` [Example 546], with 0.358 nM.

Take `COC[C@@H](NC(=O)Nc1ncc2c(-c3ccncc3)n[nH]c2c1F)c1ccccc1` [Example 547]: the half-maximal inhibitory concentration (IC50) was determined as 0.184 nM. The same measure for `O=C(Nc1ncc2c(-c3ccncc3)n[nH]c2c1F)N[C@H](CO)c1ccccc1` [Example 548]: 0.315 nM. Then `Cc1cc(-c2n[nH]c3cc(NC(=O)NC[C@H]4COCCO4)ncc23)ccn1` [Example 549], with 2.62 nM. The same measure for `Cc1cc(-c2n[nH]c3cc(NC(=O)NC[C@@H]4COCCO4)ncc23)ccn1` [Example 550]: 2.43 nM; for `Cc1cc(-c2n[nH]c3cc(NC(=O)N[C@H](c4ccccc4)[C@H]4CCCO4)ncc23)ccn1` [Example 551]: 41.2 nM.
